# Reference: patent publication US4678799A, “1,2(1,4)-dimethyl-4(2)-(2-hydroxyethyl)-5-nitro-imidazole antiprotozoal agents with reduced mutagenicity” (Merck & Co., Inc., priority 1984, dated 1987)
# Like-named read-outs stand apart in the source and are kept apart here.
# What was measured:
# [1] = system: T. foetus; test: In vitro antiprotozoal activity against T. foetus; assay type: cell-based; settings: Tritrichomonas foetus, read-out: Activity IC50 T. foetus
# Description: (§1) Several 5-nitroimidazoles have been tested for in vitro antiprotozoal activity against T. foetus, T. vaginalis, and G. lamblia.
# [2] = system: T. vaginalis; test: In vitro antiprotozoal activity against T. vaginalis; assay type: cell-based; settings: Trichomonas vaginalis, read-out: Activity IC50 T. vaginalis
# Description: as §1
# [3] = system: G. lamblia; test: In vitro antiprotozoal activity against G. lamblia; assay type: cell-based; settings: Giardia duodenalis, read-out: Activity IC50 G. lamblia
# Description: as §1
# [4] = system: Mammalian rat hepatocyte; test: DNA single strand breaks in mammalian rat hepatocytes (genotoxicity); settings: % relative to parent compound not containing 4-substituent
# Description: as §1
# ^b Mammalian rat hepatocyte single strand DNA breaks expressed as %
# relative to parent compound not containing 4substituent.
# [5] = background; cited from earlier work
# [6] = background; cited from earlier work; remark: listed apart in the source
# [7] = system: protozoa and bacteria; settings: U.S. Pat. No. 3,646,027; cited from earlier work
smiles,measurement,setting,value
Cc1nc(CCO)c([N+](=O)[O-])n1C [Compound V],IC50,"[1]; in vitro, T. foetus",5.25 µg/mL
same,IC50,"[2]; in vitro, T. vaginalis",9 µg/mL
same,IC50,"[3]; in vitro, G. lamblia",25 µg/mL
"Cc1nc(COC(N)=O)n(C)c1[N+](=O)[O-] [III, (1,4-Dimethyl-5-nitroimidazol-2-yl)methylcarbamate]",IC50,"[1]; in vitro, T. foetus",1 µg/mL
same,IC50,"[2]; in vitro, T. vaginalis",1.9 µg/mL
same,Extent of DNA Damage,[4],6%
same,IC50,"[3]; in vitro, G. lamblia",25 µg/mL
Cc1ncc([N+](=O)[O-])n1CCO [II],IC50,"[1]; in vitro, T. foetus",0.43 µg/mL
same,IC50,"[2]; in vitro, T. vaginalis",0.58 µg/mL
same,Extent of DNA Damage,[4],100%
same,IC50,"[3]; in vitro, G. lamblia",2 µg/mL
"Cc1nc(CCO)n(C)c1[N+](=O)[O-] [IV, 1,4-Dimethyl-2-(2-hydroxyethyl)-5-nitroimidazole]",IC50,"[1]; in vitro, T. foetus",1.9 µg/mL
same,IC50,"[2]; in vitro, T. vaginalis",12.5 µg/mL
same,IC50,"[3]; in vitro, G. lamblia",25 µg/mL
Cn1c([N+](=O)[O-])cnc1COC(N)=O [I],drug residual levels,[5],high drug residual levels
same,IC50,[1],0.42 µg/mL
same,IC50,[2],0.54 µg/mL
same,mutagenicity,[6],strong mutagenicity
same,Extent of DNA Damage,[4],100%
same,activity against protozoa and bacteria,[7],potent
same,IC50,[3],0.9 µg/mL
